Our source for the IC50 and melting point values is paper PMC8861050, “Design, synthesis and evaluation of novel 2-oxoindoline-based acetohydrazides as antitumor agents” (Scientific Reports, 2022).

One series deals with SW620 (colon cancer). Nature of the series: SRB cytotoxicity assay, SW620. The class given is cell-based. To be noted: Homo sapiens, SW-620, 48 h incubation, mean ± SEM of 3 independent experiments. The source says: (§1) Three human cancer cell lines: colon cancer (SW620), prostate cancer (PC3), and lung cancer (NCI-H23) were used for sceening the cytotoxicity of the compounds. The cancer cells were purchased from American Type Culture Collection (Manassas, VA, USA). Other reagents/media for cell culture were obtained from GIBCO (Grand Island, New York, USA). The testing cancer cells were culture in Dulbecco’s Modified Eagle Medium until confluence. Then, they were trypsinized and suspended at the level of 3 × 10^4 cells/mL of cell culture medium. On day 0, cancer cells were seeded at a volume of 180 µL/well of 96-well plates and incubated for 24 h at 37 °C in a 5% CO2 incubator. On day 1, 20 µL of various concentrations of testing compounds were added to each well of the 96-well plates. Chemicals were dissolved in dimethyl sulfoxide (DMSO, stock) and diluted in culture medium (1% DMSO) before adding to the culture. After 48 h incubation, the sulforhodamine B assay was used for cell density determination with slight modifications[22]–[26]. The Probits were used for the calculation of IC50 values. The reported IC50 were the averages of three independent screening (SD ≤ 10%)[27].
(§2) Two series of compounds synthesized (4a–p and 5a–f) were evaluated for their cytotoxicity against three human cancer cell lines, including SW620 (colon cancer), PC3 (prostate cancer), NCI-H23 (lung cancer), using SRB method as described previously[22] with slight modifications[23]–[26].
(In general: In SRB staining, fixed cells bind dye roughly in proportion to their protein.)

The subject of a further series is PC3 (prostate cancer). Nature of the series: SRB cytotoxicity assay, PC3. To be noted: Homo sapiens, 48 h incubation, mean ± SEM of 3 independent experiments. The class given is cell-based.
Description: as §1, §2

In the next series the test system is NCI-H23 (lung cancer). In words: SRB cytotoxicity assay, NCI-H23. The class given is cell-based. To be noted: Homo sapiens, 48 h incubation, mean ± SEM of 3 independent experiments.
Description: as §1, §2

Series [1] can be described thus: Cytotoxicity on normal mesenchymal stem cells. Format: cell-based. To be noted: human bone marrow-derived mesenchymal stem cells; mean ± SEM; read-out: Cytotoxicity (IC50) MSCs. The protocol:
Overally, 5-fluorinated compounds (4i–p and 5d–f) were slightly more cytotoxic than non-fluorinated ones (4a–h, 5a–c). For compounds in series 4a–p, it was observed that, electron-releasing substituents (–OCH3, OH) were generally better than electron-withdrawing groups (–Cl) for cytotoxicity. Especially, compounds with 2-OH substituents produced the best cytotoxicity. The addition of either 4-OCH3 or 3-allyl groups further enhanced cytotoxicity of the related compounds (4g, 4h and 4o, 4p).

Broadly, the IC50 is the midpoint of a concentration-inhibition curve. Broadly, the melting point is the temperature of the solid-liquid transition. In turn, `O=C(CN1C(=O)Cc2ccccc21)N/N=C1\C(=O)Nc2ccccc21` [Compound 5a, (Z)-2-(2-Oxoindolin-1-yl)-N'-(2-oxoindolin-3-ylidene)acetohydrazide] returned a melting point of 191 to 192 °C. In the series on SW620 (colon cancer), this molecule had a half-inhibitory concentration (IC50) of 16.4 ± 1.05 µM. Also, in the series with PC3 (prostate cancer), the IC50 was 14.3 ± 1.21 µM. In the series with NCI-H23 (lung cancer), the IC50 came to 15.3 ± 1.32 µM. Further, in series [1], the IC50 was over 30 µM.

`O=C(CN1C(=O)Cc2cc(F)ccc21)N/N=C1\C(=O)Nc2ccccc21` [Compound 5d, (Z)-2-(5-Fluoro-2-oxoindolin-1-yl)-N'-(2-oxoindolin-3-ylidene)acetohydrazide] had a melting point of 215 to 216 °C. This molecule also gave a half-inhibitory concentration (IC50) in the series with SW620 (colon cancer) of 12.4 ± 1.21 µM. The half-inhibitory concentration (IC50) in the series with PC3 (prostate cancer) amounted to 14.6 ± 1.27 µM. The molecule also came in with an IC50 in the series with NCI-H23 (lung cancer) of 13.6 ± 1.31 µM. Further, in series [1], the 50% inhibitory concentration (IC50) is over 30 µM.

In turn, `Cc1ccc2c(c1)/C(=N/NC(=O)CN1C(=O)Cc3ccccc31)C(=O)N2` [Compound 5c, (Z)-N'-(5-Methyl-2-oxoindolin-3-ylidene)-2-(2-oxoindolin-1-yl)acetohydrazide] came in with a melting point of 198 to 199 °C. This molecule also showed a half-maximal inhibitory concentration (IC50) with SW620 (colon cancer) of 17.6 ± 1.32 µM. Further, in the series on PC3 (prostate cancer), the half-inhibitory concentration (IC50) came to 19.6 ± 2.01 µM. Half-maximal inhibition in the series with NCI-H23 (lung cancer) (IC50) was put at 18.4 ± 1.87 µM. For the same molecule, the IC50 in series [1] is over 30 µM.

For the molecule `O=C(CN1C(=O)Cc2cc(F)ccc21)N/N=C1\C(=O)Nc2ccc(Cl)cc21` [Compound 5e, (Z)-N'-(5-Chloro-2-oxoindolin-3-ylidene)-2-(5-fluoro-2-oxoindolin-1-yl)acetohydrazide], the melting point was in the range of 221 to 222 °C. Further, in the series on SW620 (colon cancer), the IC50 is 15.3 ± 1.5 µM. The same molecule yielded a concentration for half-maximal inhibition (IC50) in the series with PC3 (prostate cancer) of 14.7 ± 1.71 µM. Also, half-maximal inhibition in the series with NCI-H23 (lung cancer) (IC50) required 15.5 ± 1.36 µM. The half-maximal inhibitory concentration (IC50) in series [1] was over 30 µM.

In turn, `O=C(CN1C(=O)Cc2ccccc21)N/N=C/c1ccccc1Cl` [Compound 4b, (E)-N'-(2-Chlorobenzylidene)-2-(2-oxoindolin-1-yl)acetohydrazide] displayed a melting point of 179 to 181 °C. In the series with SW620 (colon cancer), this molecule gave an IC50 of 9.91 ± 0.76 µM. The molecule further yielded a concentration for half-maximal inhibition (IC50) in the series on PC3 (prostate cancer) of 8.72 ± 0.71 µM. In the series on NCI-H23 (lung cancer), this molecule gave a half-inhibitory concentration (IC50) of 8.34 ± 0.52 µM. Also, in series [1], the IC50 was over 30 µM.

The molecule `O=C(CN1C(=O)Cc2ccccc21)N/N=C/c1cccc(Cl)c1` [Compound 4c, (E)-N'-(3-Chlorobenzylidene)-2-(2-oxoindolin-1-yl)acetohydrazide] registered a melting point of 181 to 182 °C. Moreover, the half-inhibitory concentration (IC50) with SW620 (colon cancer) came out at 15.3 ± 1.01 µM. In the series on PC3 (prostate cancer), this molecule came in with an IC50 of 14.2 ± 1 µM. Moreover, in the series on NCI-H23 (lung cancer), 13.5 ± 1.11 µM corresponded to half-maximal inhibition (IC50). Besides, the 50% inhibitory concentration (IC50) in series [1] is over 30 µM.

`O=C(CN1C(=O)Cc2cc(F)ccc21)N/N=C/c1ccc(Cl)cc1` [Compound 4l, (E)-N'-(4-Chlorobenzylidene)-2-(5-fluoro-2-oxoindolin-1-yl)acetohydrazide] showed a melting point of 191 to 192 °C. This molecule also registered an IC50 in the series with SW620 (colon cancer) of 14.3 ± 1.21 µM. In the series with PC3 (prostate cancer), this molecule came in with an IC50 of 17.8 ± 1.58 µM. Inhibition in the series with NCI-H23 (lung cancer) was half-maximal at 16.4 ± 1.77 µM (IC50). Further, in series [1], the IC50 was over 30 µM.

For `O=C(CN1C(=O)Cc2ccccc21)N/N=C1\C(=O)Nc2ccc(Cl)cc21` [Compound 5b, (Z)-N'-(5-Chloro-2-oxoindolin-3-ylidene)-2-(2-oxoindolin-1-yl)acetohydrazide], the melting point lay within 201 to 202 °C. The molecule further returned an IC50 in the series with SW620 (colon cancer) of 17.4 ± 1.43 µM. In the series on PC3 (prostate cancer), the midpoint of inhibition, the IC50, lay at 18.4 ± 1.53 µM. This molecule returned an IC50 with NCI-H23 (lung cancer) of 16.5 ± 1.33 µM. In series [1], the half-inhibitory concentration (IC50) is over 30 µM.

With `O=C(CN1C(=O)Cc2cc(F)ccc21)N/N=C/c1cccc(Cl)c1` [Compound 4k, (E)-N'-(3-Chlorobenzylidene)-2-(5-fluoro-2-oxoindolin-1-yl)acetohydrazide], the melting point fell in the range of 187 to 188 °C. This molecule gave an IC50 in the series with SW620 (colon cancer) of 16.4 ± 1.19 µM. The molecule further had an IC50 with PC3 (prostate cancer) of 16.4 ± 1.56 µM. This molecule registered an IC50 in the series on NCI-H23 (lung cancer) of 17.4 ± 1.54 µM. Further, the IC50 in series [1] is over 30 µM.

`O=C(CN1C(=O)Cc2cc(F)ccc21)N/N=C/c1ccccc1` [Compound 4i, (E)-N'-Benzylidene-2-(5-fluoro-2-oxoindolin-1-yl)acetohydrazide] registered a melting point of 173 to 174 °C. In the series with SW620 (colon cancer), this molecule gave an IC50 of 9.54 ± 0.74 µM. Half-maximal inhibition with PC3 (prostate cancer) (IC50) required 8.56 ± 0.52 µM. The concentration for half-maximal inhibition (IC50) with NCI-H23 (lung cancer) stood at 8.44 ± 0.67 µM. For the same molecule, in series [1], the IC50 is over 30 µM.

Regarding `COc1ccc(/C=N/NC(=O)CN2C(=O)Cc3ccccc32)c(O)c1` [Compound 4g, (E)-N'-(2-Hydroxy-4-methoxybenzylidene)-2-(2-oxoindolin-1-yl)acetohydrazide], the melting point was 177 to 178 °C. The same molecule yielded a half-inhibitory concentration (IC50) in the series with SW620 (colon cancer) of 3.34 ± 0.31 µM. This molecule showed an IC50 with PC3 (prostate cancer) of 4.32 ± 0.34 µM. The molecule further showed an IC50 with NCI-H23 (lung cancer) of 2.59 ± 0.21 µM. In addition, the 50% inhibitory concentration (IC50) in series [1] amounted to 15.5 ± 0.64 µM.

As for `COc1ccc(/C=N/NC(=O)CN2C(=O)Cc3cc(F)ccc32)cc1` [Compound 4m, (E)-N'-(4-Methoxybenzylidene)-2-(5-fluoro-2-oxoindolin-1-yl)acetohydrazide], the melting point was 175 to 176 °C. In the series with SW620 (colon cancer), this molecule registered an IC50 of 7.52 ± 0.63 µM. The same molecule registered an IC50 in the series with PC3 (prostate cancer) of 7.33 ± 0.42 µM. This molecule also came in with an IC50 with NCI-H23 (lung cancer) of 7.43 ± 0.56 µM. Moreover, the IC50 in series [1] was over 30 µM.

Consider `O=C(CN1C(=O)Cc2ccccc21)N/N=C/c1ccccc1` [Compound 4a, (E)-N'-Benzylidene-2-(2-oxoindolin-1-yl)acetohydrazide], for which the melting point fell in the range of 167 to 168 °C. Further, the IC50 in the series with SW620 (colon cancer) came to 10.1 ± 0.91 µM. For the same molecule, the 50% inhibitory concentration (IC50) in the series on PC3 (prostate cancer) was 12.2 ± 0.99 µM. In the series with NCI-H23 (lung cancer), this molecule registered a 50% inhibitory concentration (IC50) of 10.4 ± 0.87 µM. Also, the IC50 in series [1] is over 30 µM.

The molecule `COc1ccc(/C=N/NC(=O)CN2C(=O)Cc3ccccc32)cc1` [Compound 4e, (E)-N'-(4-Methoxybenzylidene)-2-(2-oxoindolin-1-yl)acetohydrazide] had a melting point of 168 to 169 °C. Further, in the series with SW620 (colon cancer), the 50% inhibitory concentration (IC50) is 9.01 ± 0.74 µM. The IC50 in the series on PC3 (prostate cancer) came out at 7.43 ± 0.45 µM. In the series with NCI-H23 (lung cancer), this molecule gave an IC50 of 8.72 ± 0.33 µM. Moreover, the concentration for half-maximal inhibition (IC50) in series [1] was over 30 µM.

Molecule `O=C(CN1C(=O)Cc2cc(F)ccc21)N/N=C/c1ccccc1Cl` [Compound 4j, (E)-N'-(2-Chlorobenzylidene)-2-(5-fluoro-2-oxoindolin-1-yl)acetohydrazide] came in with a melting point of 185 to 186 °C. Besides, 7.56 ± 0.57 µM corresponded to half-maximal inhibition with SW620 (colon cancer) (IC50). The molecule further gave a concentration for half-maximal inhibition (IC50) with PC3 (prostate cancer) of 8.43 ± 0.59 µM. Also, in the series with NCI-H23 (lung cancer), half-maximal inhibition (IC50) required 8 ± 0.98 µM. Further, the concentration for half-maximal inhibition (IC50) in series [1] is over 30 µM.

As to `O=C(CN1C(=O)Cc2ccccc21)N/N=C/c1ccc(Cl)cc1` [Compound 4d, (E)-N'-(4-Chlorobenzylidene)-2-(2-oxoindolin-1-yl)acetohydrazide], the melting point lay within 185 to 187 °C. Further, the IC50 with SW620 (colon cancer) worked out at 16.3 ± 1.21 µM. In the series on PC3 (prostate cancer), the midpoint of inhibition, the IC50, lay at 17.4 ± 1.34 µM. For the same molecule, the IC50 in the series on NCI-H23 (lung cancer) is 15.6 ± 1.43 µM. Also, the IC50 in series [1] is over 30 µM.

For the molecule `Cc1ccc2c(c1)/C(=N/NC(=O)CN1C(=O)Cc3cc(F)ccc31)C(=O)N2` [Compound 5f, (Z)-2-(5-Fluoro-2-oxoindolin-1-yl)-N'-(5-methyl-2-oxoindolin-3-ylidene)acetohydrazide], the melting point lay within 217 to 218 °C. In addition, the IC50 with SW620 (colon cancer) was determined as 12.7 ± 1.22 µM. Besides, it took 15.3 ± 1.7 µM to reach half-maximal inhibition in the series on PC3 (prostate cancer) (IC50). Half-maximal inhibition in the series with NCI-H23 (lung cancer) (IC50) was put at 14.9 ± 1.83 µM. Also, in series [1], the IC50 was over 30 µM.
